# Laboratory results as given in paper PMC9301601 (Frontiers in Pharmacology, 2022).
# Tested on: hiPSC-CMs
# Assay: Action potential recording in hiPSC-CMs, whole-cell patch-clamp (current-clamp)
# Type: cell-based, human
# Conditions: LPV-treated hiPSC-CMs, Figure 6H
structure (smiles),measurement,value
"Cc1cccc(C)c1OCC(=O)N[C@@H](Cc1ccccc1)[C@@H](O)C[C@H](Cc1ccccc1)NC(=O)[C@H](C(C)C)N1CCCNC1=O [LPV, lopinavir]",Interval (spontaneous rate interval),1.4 ± 0.3 s
